The results in this text go back to publication PMC6470603, “Design and Synthesis of Matrine Derivatives as Novel Anti-Pulmonary Fibrotic Agents via Repression of the TGFβ/Smad Pathway” (Molecules, 2019).

Data set [1] relates to TGF-β receptor type I (TGFβRI) in MRC-5 cells. Briefly: Immunofluorescence assay, TGFβRI expression. The note with it: 10 μM, 48 h, 10 ng/mL TGF-β1, mean fluorescence intensity. The data set is classed as cell-based, human. The text has this: Another emerging effect of Smad which acts as the amplifier of TGF-β signaling also contribute to fibrotic diseases. The nuclear translocation of Smad3 leads to the activation of the miR-433 promotor region. miR-433 promotes the decrease of antizyme inhibitor I (Azin1) and eventually results in depletion of polyamine, which causes the upregulation of expression level of TGF-β receptor type I (TGFβRI) and TGF-β1. This series of signaling creates a positive-feedback loop which amplify the TGFβ signaling.
(§1) MRC-5 cells were seeded on 0.2% gelatin-coated glass coverslips and treated with or without 10 ng/mL TGF-β1 in the presence of vehicle or 10 μM 3f for 48 h. The cells were washed with PBS and fixed in freshly prepared 4% paraformaldehyde (PFA) at room temperature for 10 min. The cells were then permeabilized with 0.25% Triton X-100 for 10 min before 30 min of blocking by PBS solution supplemented with 1% BSA and 22.5 mg/mL glycine (the permeabilization was omitted for S100A4 and TGFβRI staining). The cells were incubated with primary antibody overnight at 4 °C and labeled with AlexaFluor 488-conjugated or Dylight 488-conjugated secondary antibody. […] The mean fluorescence intensity (MFI) of each photo was calculated by ImageJ. […]

For another data set, the system named is Smad2/3 in MRC-5 cells. Briefly: Immunofluorescence assay, cellular localization of Smad2/3. The data set is classed as cell-based, human. The note with it: 10 μM, 48 h, 10 ng/mL TGF-β1. The source says: Small mothers against decapentaplegic homologs (Smad) are key mediators and regulators of TGFβ signaling. The binding of TGF-β1 to TGFβ receptors leads to the phosphorylation of Smad2/3 complex, which then translocate into nucleus to enhance gene transcription by cooperating with DNA transcription factors. Inhibition of the nuclear translocation of Smad2/3 could attenuate the transcription of profibrotic genes such as collagens and α-SMA. Therefore, we investigated the cellular localization of Smad2/3 by immunofluorescence assay. As depicted in Figure 6A, Smad2/3 predominately localize in cytoplasm under normal conditions, but translocate into nucleus upon TGF-β1 stimulation.
(§2) MRC-5 cells were seeded on 0.2% gelatin-coated glass coverslips and treated with or without 10 ng/mL TGF-β1 in the presence of vehicle or 10 μM 3f for 48 h. The cells were washed with PBS and fixed in freshly prepared 4% paraformaldehyde (PFA) at room temperature for 10 min. The cells were then permeabilized with 0.25% Triton X-100 for 10 min before 30 min of blocking by PBS solution supplemented with 1% BSA and 22.5 mg/mL glycine (the permeabilization was omitted for S100A4 and TGFβRI staining). […] The mean fluorescence intensity (MFI) of each photo was calculated by ImageJ. […]

The subject of another data set is MRC-5 fibroblasts. Briefly: Scratch (wound healing) assay, TGF-β1-induced fibroblast migration. The data set is classed as cell-based, human. The note with it: 10 μM, 10 ng/mL TGF-β1, 24 h (TGF-β1 alone 85.0%). On the procedure: Fibroblast migration is the key event in pulmonary fibrogenesis. […] Inhibition of lung fibroblasts migration is a promising potential therapeutic target for IPF. We performed wound healing assay to investigate the inhibitory effect of 3f and matrine against fibroblast migration (Figure 7).
MRC-5 cells were seeded on 6-well plates and allowed to reach confluence for 48 h. The cell monolayer was gently scratched with a 1 mL pipette tip across the center of the well. After scratching, the cells were washed twice with medium to remove detached cells. The cells were then treated with or without 10 ng/mL TGF-β1 in the presence of vehicle or 10 μM 3f for 24 h. The gap area in wound region was quantitatively evaluated using ImageJ [30] and MRI wound healing tool plugin [31].

For data set [2], the system named is alpha-smooth muscle actin (α-SMA) in MRC-5 cells. Briefly: Immunofluorescence assay, α-SMA expression (fibroblast-to-myofibroblast transition). The data set is classed as cell-based, human. The note with it: 10 μM, 48 h, 10 ng/mL TGF-β1, mean fluorescence intensity.
Source text: (§3) Myofibroblasts, a further differentiated subset of fibroblasts, are primary effector cells for collagen synthesis in fibrotic disorders. Inhibition of fibroblast differentiation is an important therapeutic target for IPF treatment. To examine whether 3f could inhibit TGF-β1-induced fibroblast-to-myofibroblast transition, we investigated the expression level of alpha-smooth muscle actin (α-SMA) and S100A4, the key markers which distinguish myofibroblasts from their precursor fibroblasts. We observed dramatic upregulation of myofibroblast markers in response to TGF-β1 stimulation (774.9% and 537.7% for α-SMA and S100A4, respectively), characterizing a strong expression of myofibroblast phenotype.
as §2

The test system of data set [3] is Collagen type III alpha-1 chain (COL3A1) in MRC-5 cells. Briefly: Immunofluorescence assay, COL3A1 expression. The format is cell-based, human. The note with it: 10 μM, 48 h, 10 ng/mL TGF-β1, mean fluorescence intensity. On the procedure: (§4) Due to the significance of collagen in IPF pathogenesis, we first evaluated the inhibitory effect of key compound 3f against collagen accumulation. Immunofluorescence staining was employed to investigate collagen protein expression.
as §1

The next data set deals with S100A4 in MRC-5 cells. Briefly: Immunofluorescence assay, S100A4 expression (fibroblast-to-myofibroblast transition). The data set is classed as cell-based, human. The note with it: 10 μM, 48 h, 10 ng/mL TGF-β1, mean fluorescence intensity.
Source text: as §3, §2

In data set [4] the test system is Collagen type I alpha-1 chain (COL1A1) in MRC-5 cells. Briefly: Immunofluorescence assay, COL1A1 expression. The data set is classed as cell-based, human. The note with it: 10 μM, 48 h, 10 ng/mL TGF-β1, mean fluorescence intensity. The procedure: as §4, §1
Data set [5] deals with TGF-β1 induced total collagen accumulation in MRC-5 cells. Briefly: Sircol collagen assay: inhibition of TGF-β1-induced total collagen accumulation. The format is cell-based, human. The note with it: for IC50: Homo sapiens, MRC5, 10 ng/mL TGF-β1, 48 h, Sircol collagen assay; for SI, selectivity index (SI = CC50/IC50): MRC-5 cells. The procedure:
Higher SI values indicates better safety profile.
MRC-5 cells in 1 × 10^5 cells/mL density were seeded in TC treated 96-well plates and allowed to reach confluence for 48 h. The cells were then starved using MEM-NEAA containing 0.2% BSA for 24 h. After starvation, the medium was changed to MEM-NEAA supplemented with 0.2% BSA, 100 μM L-Proline, 100 μM Ascorbic acid, with or without 10 ng/mL TGF-β1 (Peprotech) in the presence of vehicle or different concentrations of compounds. After 48 h incubation, the MRC-5 cells were washed with phosphate buffered saline (PBS) and fixed in −20 °C precooled methanol for 10 min. The cells were than washed with PBS before incubation in 0.1% PSR staining solution (0.1% Sirus red in saturated water solution of picric acid) for 1 h. The staining solution was then removed and the cells were washed with 0.1% acetic acid for three times. 200 μL of 0.1 mol/L sodium hydroxide solution were added to each well and the plates were placed on a rocking platform for 1 h. The optical density (OD) values at 550 nm were determined with an Infinite 2000 spectrophotometer.

Data set [6] deals with fibronectin in MRC-5 cells. Briefly: Immunofluorescence assay, fibronectin expression. The format is cell-based, human. The note with it: 10 μM, 48 h, 10 ng/mL TGF-β1, mean fluorescence intensity. On the procedure:
Next, we evaluated the inhibitory effect of 3f against fibronectin expression. Fibronectin is another major constituent of ECM and plays a critical role in fibrogenesis by promoting the migration, proliferation, and adhesion of fibroblasts.
as §1

A short description of data set [7]: Cytotoxicity assay (CCK-8). The note with it: human, MRC-5 cells (human fetal lung fibroblasts).
Description: (§5) Cytotoxicity of all compounds were also determined against MRC-5 cells, so as to calculate selectivity index (SI, CC50/IC50).
(§6) MRC-5 cells in passage between 21 to 26 were used for experiments.
(§7) MRC-5 cells were incubated with different concentrations of compounds for 48 h, and then 10 μL of CCK-8 solution were added to each well. The cells were incubated at 37 °C for another 3 h before determining the OD values at 492 nm. DMSO at 0.1% v/v final concentration was used to solubilize the test compounds, except for compound 3b, 3c, and 3e, where 1% v/v DMSO was used to ensure complete solubilization.
A further data set is described as follows: in vitro. The note with it: human.

Description for in vitro: as §5, §6, §7

As to `O=C1CC(n2ccc3cc(Cl)ccc32)CC2C3CCCN4CCCC(CN12)C34` (centres unmarked) [3f, 13-(5-chloro-1H-indol-1-yl)-matrine], in data set [1], the “reduction of TGF-β1-induced upregulation of TGFβRI expression level” value was determined as 46.7%. Further, in the data set on Smad2/3 in MRC-5 cells, the “effect on cytoplasm-to-nuclear translocation of Smad2/3” value is reported as “significantly inhibit the cytoplasm-to-nuclear translocation of Smad2/3”. The “closure of wound area over 24 h period” value in the data set on MRC-5 fibroblasts is 37.7%. In addition, the “downregulation in expression level of α-SMA compared to TGF-β1 stimulation group” value in data set [2] was 45.8%. Besides, the “decrease in expression level of COL3A1 relative to TGF-β1 stimulation group” value in data set [3] was determined as 31.1%. Moreover, the “downregulation in expression level of S100A4 compared to TGF-β1 stimulation group” value with S100A4 in MRC-5 cells is 17.7%. For the same compound, in [4], the “decrease in expression level of COL1A1 relative to TGF-β1 stimulation group” value amounted to 46.2%. For the same compound, in data set [5], inhibition was half-maximal at 3.3 ± 0.3 µM (IC50) and the “SI, selectivity index (SI = CC50/IC50)” value turned out to be 8.0. Also, in data set [6], the “reduction of expression level of fibronectin comparing to TGF-β1 stimulation group” value amounted to 40.0%. This compound also came in with a CC50 at 48 h in data set [7] of 26.7 ± 0.7 µM.

On to `O=C1C=CC[C@@H]2[C@H]3CCCN4CCC[C@@H](CN12)[C@@H]34` [Sophocarpine, reference compound], for which, in “in vitro”, the CC50 at 48 h is 3.16 ± 0.355 mM. For the same compound, in [5], 1190 ± 135 µM corresponded to half-maximal inhibition (IC50) and the “SI, selectivity index (SI = CC50/IC50)” value was 2.7.
